Source: patent US9670217B2, “Process for preparing chlorins and their pharmaceutical uses” (UNIVERSIDADE DE COIMBRA, priority 2008, dated 2017)

Legend:
[1] = system: S91I3 (mouse melanoma); assay: Cell photosensitization, 748 nm diode laser, resazurin; format: cell-based; settings: 6 J/cm^2 diode laser irradiation at 28.5 mW
Protocol: (§1) The cell lines employed in laser irradiation were the HT-29 (human colon carcinoma), PC-3 (human prostate carcinoma), SW2 (human small cell lung cancer), A-549 (human non-small cell lung cancer). S91/I3 (mouse melanoma) and CT26 (mouse colon carcinoma). They were used both for cytotoxicity and photocytotoxicity experiments. PC-3. SW2 and S91113 cells were cultured in RPMI-1640 medium (Sigma-Aldrich, Steinheim, Germany) and HT-29, A-549 and CT26 cells were cultured in Dulbecco's Modified Eagle Medium (DMEM) (Cambrex Bioscience, Verviers, Belgium). Both cell culture mediums were supplemented with 10% heat-inactivated Fetal Bovine Serum (FBS) (Cambrex Bioscience, Verviers, Belgium) and 100 IU/ml penicillin-100 μg/ml streptomycin (Cambrex Bioscience, Verviers, Belgium). […] For the in vitro studies, cells at 85-90% confluence, were detached with Trypsin-Versene-EDTA solution (Cambrex Bioscience, Verviers, Belgium), counted and seeded in flat-bottom 96-well plates at the desired densities.
(§2) Cell viability assay. In the end of the experiences cell viability was evaluated by the resazurin reduction assay. […] The absorbance values of each well were measured at 540 nm and 630 nm using a microplate reader Multiskan Ex (Thermo-Electron Corporation, Vartaa, Finland).
Cell photosensitization. […] Cell viability was evaluated approximately 24 h after the irradiation.

[2] = system: CT26 (mouse colon carcinoma); assay: Cytotoxicity in the dark, resazurin assay; format: cell-based
Protocol: as §1, with “Belgium).” for “Belgium). Both cell culture mediums were supplemented with 10% heat-inactivated Fetal Bovine Serum (FBS) (Cambrex Bioscience, Verviers, Belgium) and 100 IU/ml penicillin-100 μg/ml streptomycin (Cambrex Bioscience, Verviers, Belgium).”
as §2
Cytotoxicity. […] After the incubation the cell viability was evaluated. […] Cytotoxicity was quantified by expressing cell death relatively to untreated cells (% of control cells). […]

[3] = system: SW2 (human small cell lung cancer); assay: Cytotoxicity in the dark, resazurin assay; format: cell-based; settings: SW2, incubation 48 h in the dark; read-out: IC50 dark toxicity
Protocol: (§3) The cell lines employed in laser irradiation were the HT-29 (human colon carcinoma), PC-3 (human prostate carcinoma), SW2 (human small cell lung cancer), A-549 (human non-small cell lung cancer). S91/I3 (mouse melanoma) and CT26 (mouse colon carcinoma). They were used both for cytotoxicity and photocytotoxicity experiments. PC-3. SW2 and S91113 cells were cultured in RPMI-1640 medium (Sigma-Aldrich, Steinheim, Germany) and HT-29, A-549 and CT26 cells were cultured in Dulbecco's Modified Eagle Medium (DMEM) (Cambrex Bioscience, Verviers, Belgium). Both cell culture mediums were supplemented with 10% heat-inactivated Fetal Bovine Serum (FBS) (Cambrex Bioscience, Verviers, Belgium) and 100 IU/ml penicillin-100 μg/ml streptomycin (Cambrex Bioscience, Verviers, Belgium). The DMEM medium used for CT26 cells was also supplemented with HEPES 10 mM. Cell lines were maintained in 75 cm^2 flasks (Orange Scientific, Braine-l'Alleud, Belgium) at 37° C. in humidified atmosphere with 5% CO2. For the in vitro studies, cells at 85-90% confluence, were detached with Trypsin-Versene-EDTA solution (Cambrex Bioscience, Verviers, Belgium), counted and seeded in flat-bottom 96-well plates at the desired densities.
(§4) Cell viability assay. In the end of the experiences cell viability was evaluated by the resazurin reduction assay. Briefly, resazurin (Sigma-Aldrich, Steinhelm, Germany) stock solution (0.1 mg/ml in phosphate buffer saline (PBS) pH 7.4) was diluted 10% in culture medium without FBS or antibiotics and 200 μl were added to the cells in each well. Plates were incubated for 3-4 h at 37° C. The absorbance values of each well were measured at 540 nm and 630 nm using a microplate reader Multiskan Ex (Thermo-Electron Corporation, Vartaa, Finland).
(§5) Cytotoxicity. Cells were seeded in flat-bottom 96-well plates (Orange Scientific, Braine-l'Alleud, Belgium) in 100 μl of culture medium and were allowed to adhere overnight. The photosensitizer was added to the cells (diluted in 100 μl culture medium) at final concentrations between 0.01 and 1 mM. Each concentration was tested in quadruplicate. The incubation periods in the dark at 37° C. were two times the doubling time for the tested cell line. After the incubation the cell viability was evaluated. In parallel control experiments, cells were incubated without the drug. Cytotoxicity was quantified by expressing cell death relatively to untreated cells (% of control cells). The results were plotted as dose response curves (% of cell death as a function of the concentration of the DRUG), which allow the determination of the concentration that inhibit 50% of cell growth (IC50).

[4] = system: S91/I3 (mouse melanoma); assay: Cytotoxicity in the dark, resazurin assay; format: cell-based; settings: S91I3, incubation 40 h in the dark; read-out: IC50 dark toxicity
Protocol: as §3, §4, §5

[5] = system: CT26 mouse colon carcinoma; assay: PDT of implanted CT26 tumors; format: in vivo, Balb/C mice; settings: 10 mg/kg i.p. in PEG400, 24 h post-injection, 748 nm, 132 J/cm^2
Excerpt: The other mice were Balb/C weighing 20-25 g, from the animal breeding facility of Charles River Laboratories (Barcelona). The mice were kept on a standard laboratory diet with free access to drinking water. The use of such animals for experimental purposes was approved by the Board of Centro de Neurociências e Biologia Celular (Coimbra).
The tumors grew to reach 5 mm in diameter in about one week after the implantation. No spontaneous necrosis was observed. The treatment was initiated when the tumor attained 5 mm in diameter in each animal. The day the tumors reached the treatment size, the mice were injected via i.p. with a dose of 10 mg/kg of Luzitin-FMet in PEG400. At 24 h post-injection, four mice were anesthetized with ketamine and xylazine, and treated with the Hamamatsu 748 nm diode laser described before, at a fluence rate of 100 mW/cm^2 for 22 minutes (total fluence of 132 J/cm^2). Four other mice were not treated and served as control. The mice were checked daily, the tumors were measured using two orthogonal measurements L and W (perpendicular to L) and the volumes were calculated using the formula V=L×W^2/2 and recorded.

[6] = system: HT-29 (human colon carcinoma); assay: Cytotoxicity in the dark, resazurin assay; format: cell-based; settings: HT-29, dark
Protocol: as §3, §4, §5

[7] = minipig

SMILES: O=S(=O)(O)c1ccc(Cl)c(-c2c3nc(c(-c4c(Cl)ccc(S(=O)(=O)O)c4Cl)c4ccc([nH]4)c(-c4c(Cl)ccc(S(=O)(=O)O)c4Cl)c4nc(c(-c5c(Cl)ccc(S(=O)(=O)O)c5Cl)c5ccc2[nH]5)CC4)CC3)c1Cl [Luzitin-Cl2, 5,10,15,20-tetrakis(2,6-dichloro-3-sulfonylphenyl)bacteriochlorin]
- concentration of sensitizer required to kill 90% of cells (LD90) [1]: 40 µM

SMILES: CCNS(=O)(=O)c1ccc(Cl)c(-c2c3nc(c(-c4c(Cl)ccc(S(=O)(=O)NCC)c4Cl)c4ccc([nH]4)c(-c4c(Cl)ccc(S(=O)(=O)NCC)c4Cl)c4nc(c(-c5c(Cl)ccc(S(=O)(=O)NCC)c5Cl)c5ccc2[nH]5)CC4)CC3)c1Cl [Luzitin-Cl2Et, 5,10,15,20-tetrakis(2,6-dichloro-3-N-ethylsulfamoylphenyl)bacteriochlorin]
- highest concentration that causes relatively no effect in viability in the dark [2]: 50 µM

SMILES: O=S(=O)(O)c1ccc(Cl)c(-c2c3nc(c(-c4cc(S(=O)(=O)O)ccc4Cl)c4ccc([nH]4)c(-c4cc(S(=O)(=O)O)ccc4Cl)c4nc(c(-c5cc(S(=O)(=O)O)ccc5Cl)c5ccc2[nH]5)CC4)CC3)c1 [Luzitin-Cl, 5,10,15,20-tetrakis(2-chloro-5-sulfonylphenyl)bacteriochlorin]
- IC50 [3]: 400 µM
- IC50 [4]: 500 µM

SMILES: CNS(=O)(=O)c1ccc(F)c(-c2c3nc(c(-c4cc(S(=O)(=O)NC)ccc4F)c4ccc([nH]4)c(-c4cc(S(=O)(=O)NC)ccc4F)c4nc(c(-c5cc(S(=O)(=O)NC)ccc5F)c5ccc2[nH]5)CC4)CC3)c1 [Luzitin-FMet, 5,10,15,20-tetrakis(2-fluoro-5-N-methylsulfamoylphenyl)bacteriochlorin]
- tumor size after PDT vs non-irradiated controls [5]: smaller than the average size of the control animals and in one case the tumor completely disappeared
- highest concentration that causes relatively no effect in viability in the dark [6]: 50 µM
- depth of diffusion through stratum corneum and epidermis [7]: 50 microns
- time to diffuse through all the epidermis [7]: ≤ 3 h
- side effects of topical gel formulation ([7]; in vivo): None of the animals, and in particular the animal that remained alive, showed evidence for side effects
